{
  "source": "patent US20160120979A1",
  "about": "“METHOD OF APPLYING A COMPOSITION AND PHARMACEUTICAL COMPOSITION WITH A REGIMEN OF ADMINISTERING IT” (priority 2013, published 2016)",
  "key": {"[1]": {"tested_on": "chemotherapy resistant stage 4 (metastatic) small cells lung carcinoma cells", "test": "Experiment 10: metabolic activity (CellTiter-Glo) of resistant neoplastic cells after photo-activated oncological drugs", "conditions": "sample 4, Topotecan 0.07 μg/ml"}, "[2]": {"tested_on": "MU50 multi-drug resistant bacterial cells", "test": "Experiment 2: moxifloxacin with UV-A on MU50 (CFU)", "type": "cell-based, Staphylococcus aureus", "conditions": "for control: CFU without UVA: no UVA", "text": "This low concentration was chosen so as to detect threshold effects at the low edge of a just marginally effective concentration level of the antibiotic."}, "Acinetobacter [3]": {"tested_on": "Acinetobacter", "type": "cell-based", "conditions": "remaining bacteria of experiment 12 proliferated and treated again", "description": "(§1) 15′000′000 multi-resistant bacteriae (0.050 ml of a McFarland of 1) were put on 40 mm diameter petri dishes. The petri dishes comprised MH agar with or without antibiotic.\n(§2) The LED power during 0.02 ms was measured to be 0.63 W on a Thorlabs power sensor with a surface area of 2.2×2.2 mm representing a power of 13 mW/cm^2.\n(§3) After the irradiation treatment according to experiment 12, remaining bacteria were allowed to proliferate and then were subject to the treatment according to experiment 12 again in order to test for possible new resistances to the treatment. The values in the following table are designated as in experiment 12: […]"}, "[4]": {"tested_on": "Staphylococcus aureus MU500", "type": "cell-based", "conditions": "remaining bacteria of experiment 12 proliferated and treated again", "description": "as §1, §2, §3"}, "fibroblasts": {"tested_on": "fibroblasts", "type": "cell-based", "description": "In the second toxicity test fibroblasts were grown in RPMI cell culture medium medium with 10% fetal bovine serum and 1% of penicillin-streptomycin-fungizione (100×).\nA: pulsed for 10 ms on and 90 ms of for 10 minutes or\nB: pulsed for 5 ms on and 45 ms of for 10 minutes\nC: no exposure to electromagnetic radiation\nThe result was obtained by counting viable cells for determination of the percentage of viable cells, with 100% viability being equal to the number of cells delivered to each well."}, "[5]": {"tested_on": "Staphylococcus aureus MU500", "test": "Experiment 12: replication on antibiotic agar after pulsed 400 nm irradiation", "type": "cell-based", "conditions": "24 hours incubation; for E: Staphylococcus aureus MU500 (no irradiation), replication: antibiotic 10 mg/l in MH agar; for F: Staphylococcus aureus MU500 (irradiation), replication: antibiotic 10 mg/l, 400 nm LED pulses 0.02 ms, 1 kHz, 10 minutes", "description": "as §1, §2"}, "Pseudomonas aeruginosa": {"tested_on": "Pseudomonas aeruginosa", "test": "Experiment 12: replication on antibiotic agar after pulsed 400 nm irradiation", "type": "cell-based", "conditions": "24 hours incubation; for A: Pseudomonas aeruginosa (no irradiation), replication: antibiotic 10 mg/l in MH agar; for B: Pseudomonas aeruginosa (irradiation), replication: antibiotic 10 mg/l, 400 nm LED pulses 0.02 ms, 1 kHz, 10 minutes", "description": "as §1\n(§4) […]. The LED power during 0.02 ms was measured to be 0.63 W on a Thorlabs power sensor with a surface area of 2.2×2.2 mm representing a power of 13 mW/cm^2."}, "Acinetobacter [6]": {"tested_on": "Acinetobacter", "test": "Experiment 12: replication on antibiotic agar after pulsed 400 nm irradiation", "type": "cell-based", "conditions": "24 hours incubation; for C: Acinetobacter (no irradiation), replication: antibiotic 10 mg/l in MH agar; for D Acinetobacter (irradiation), replication: antibiotic 10 mg/l, 400 nm LED pulses 0.02 ms, 1 kHz, 10 minutes", "description": "as §1, §4"}, "Mice fibroblast": {"tested_on": "Mice fibroblast", "type": "cell-based", "conditions": "Tobramycin 75, Tetracycline 10, Ciprofloxacin 1 μg/ml; 30 min pre-incubation; no treatment, CXL 18 mW/cm2 5 min or laser 405 nm 1 min; 24 hours", "experimental": "The number of colony forming units (CFU) was determined after 24 hours of incubation at 37° C."}, "[7]": {"tested_on": "MU50 multidrug-resistant Staphylococcus aureus strain (MRSA)", "test": "Minimum inhibitory concentration (MIC) on MU50", "type": "cell-based", "conditions": "Staphylococcus aureus, MRSA; overnight incubation; read-out: MIC", "text": "For some of the experimental tests MU50 bacteria were used. MU50 is a multidrug-resistant Staphylococcus aureus strain (MRSA). MRSA are bacteria which have naturally evolved under antibiotic selection pressure and which are known to be resistant to antibiotics including penicillins (methicillin, dicloxacillin, nafcillin, oxacillin, etc.) and cephalosporins. MU50 is additionally resistant to macrolides, quinolones and aminoglycosides.\nThe minimum inhibitory concentration (MIC), which inhibits the visible growth of a microorganism after an overnight incubation was determined for the following antibiotics: […]"}, "[8]": {"conditions": "sample 1A: moxifloxacin during UV 5 μg/ml, after UV 7.5 μg/ml for 2 hours, UV-A 365 nm 10 mW/cm^2 10 min"}, "[9]": {"conditions": "sample 1B: moxifloxacin during UV 5 μg/ml, after UV 2.5 μg/ml (NaCl added), UV-A 365 nm 10 mW/cm^2 10 min"}},
  "note": "Where two headings read alike, the source gives them in different places.",
  "data": [
    {"molecule": "CC[C@@]1(O)C(=O)OCc2c1cc1n(c2=O)Cc2cc3c(CN(C)C)c(O)ccc3nc2-1", "note": "[Topotecan]", "values": [
      {"measurement": "cell metabolic activity (luminescence, ATP) after normalization with the controls", "setting": "[1]; A: pulse ON 10 ms, 0.1 J, OFF 90 ms, 10 minutes", "value": 7, "unit": "%"},
      {"measurement": "cell metabolic activity (luminescence, ATP) after normalization with the controls", "setting": "[1]; B: pulse ON 10 ms, 0.01-0.001 J, OFF 90 ms, 10 minutes", "value": 52, "unit": "%"},
      {"measurement": "cell metabolic activity (luminescence, ATP) after normalization with the controls", "setting": "[1]; C: control no pulse", "value": 100, "unit": "%"},
      {"measurement": "cell metabolic activity (luminescence, ATP) after normalization with the controls", "setting": "[1]; D: control no pulse", "value": 100, "unit": "%"},
      {"measurement": "cell metabolic activity (luminescence, ATP) after normalization with the controls", "setting": "[1]; E: pulse ON 10 ms, 0.01-0.001 J, OFF 90 ms, 5 minutes", "value": 47, "unit": "%"},
      {"measurement": "cell metabolic activity (luminescence, ATP) after normalization with the controls", "setting": "[1]; F: pulse ON 10 ms, 0.1 J, OFF 90 ms, 5 minutes", "value": 5, "unit": "%"}
    ]},
    {"molecule": "COc1c(N2C[C@@H]3CCCN[C@@H]3C2)c(F)cc2c(=O)c(C(=O)O)cn(C3CC3)c12", "note": "[Moxifloxacin]", "values": [
      {"measurement": "control: CFU without UVA", "setting": "[2]; sample 1A: moxifloxacin during 5 μg/ml, after 7.5 μg/ml for 2 hours", "value": 516, "unit": "CFU"},
      {"measurement": "CFU with UVA", "setting": "[2]; [8]", "value": 3, "unit": "CFU"},
      {"measurement": "CFU with UVA, percentage in brackets (survival rate)", "setting": "[2]; [8]", "value": 0, "unit": "%"},
      {"measurement": "control: CFU without UVA", "setting": "[2]; sample 1B: moxifloxacin during 5 μg/ml, after 2.5 μg/ml (NaCl added)", "value": 400, "unit": "CFU"},
      {"measurement": "CFU with UVA", "setting": "[2]; [9]", "value": 119, "unit": "CFU"},
      {"measurement": "CFU with UVA, percentage in brackets", "setting": "[2]; [9]", "value": 30, "unit": "%"},
      {"measurement": "D Acinetobacter (irradiation), replication, second treatment", "setting": "Acinetobacter [3]", "value": "NR (No replication)"},
      {"measurement": "C: Acinetobacter (no irradiation), replication, second treatment", "setting": "Acinetobacter [3]", "value": "R (Bacteria can replicate after the treatment)"},
      {"measurement": "F: Staphylococcus aureus MU500 (irradiation), replication, second treatment", "setting": "[4]", "value": "PR (Bacteria can replicate partially)"},
      {"measurement": "E: Staphylococcus aureus MU500 (no irradiation), replication, second treatment", "setting": "[4]", "value": "R (Bacteria can replicate after the treatment)"},
      {"measurement": "Percentage of viable cells", "setting": "fibroblasts; C: no exposure to electromagnetic radiation, antibiotic 3-10 μg/ml final", "value": 85, "unit": "%"},
      {"measurement": "E: Staphylococcus aureus MU500 (no irradiation), replication", "setting": "[5]", "value": "R (Bacteria can replicate after the treatment)"},
      {"measurement": "F: Staphylococcus aureus MU500 (irradiation), replication", "setting": "[5]", "value": "NR (No replication)"},
      {"measurement": "A: Pseudomonas aeruginosa (no irradiation), replication", "setting": "Pseudomonas aeruginosa", "value": "R (Bacteria can replicate after the treatment)"},
      {"measurement": "B: Pseudomonas aeruginosa (irradiation), replication", "setting": "Pseudomonas aeruginosa", "value": "NR (No replication)"},
      {"measurement": "C: Acinetobacter (no irradiation), replication", "setting": "Acinetobacter [6]", "value": "R (Bacteria can replicate after the treatment)"},
      {"measurement": "D Acinetobacter (irradiation), replication", "setting": "Acinetobacter [6]", "value": "NR (No replication)"}
    ]},
    {"molecule": "CN(C)[C@@H]1C(O)=C(C(N)=O)C(=O)[C@@]2(O)C(O)=C3C(=O)c4c(O)cccc4[C@@](C)(O)C3CC12", "note": "(stereo partly shown) [Tetracycline]", "values": [
      {"measurement": "toxicity in term of necrosis and apoptosis", "setting": "Mice fibroblast", "value": "No toxicity in term of necrosis and apoptosis"},
      {"measurement": "MIC", "setting": "[7]", "value": 32, "unit": "mg/L"},
      {"measurement": "D Acinetobacter (irradiation), replication, second treatment", "setting": "Acinetobacter [3]", "value": "NR (No replication)"},
      {"measurement": "C: Acinetobacter (no irradiation), replication, second treatment", "setting": "Acinetobacter [3]", "value": "R (Bacteria can replicate after the treatment)"},
      {"measurement": "F: Staphylococcus aureus MU500 (irradiation), replication, second treatment", "setting": "[4]", "value": "NR (No replication)"},
      {"measurement": "E: Staphylococcus aureus MU500 (no irradiation), replication, second treatment", "setting": "[4]", "value": "R (Bacteria can replicate after the treatment)"},
      {"measurement": "Percentage of viable cells Normalized for the dead cell in NaCl group including light", "setting": "fibroblasts; A: 405 nm pulsed 10 ms on, 90 ms off for 10 minutes", "value": 52, "unit": "%"},
      {"measurement": "Percentage of viable cells Normalized for the dead cell in NaCl group including light", "setting": "fibroblasts; B: 405 nm pulsed 5 ms on, 45 ms off for 10 minutes", "value": 57, "unit": "%"},
      {"measurement": "E: Staphylococcus aureus MU500 (no irradiation), replication", "setting": "[5]", "value": "R (Bacteria can replicate after the treatment)"},
      {"measurement": "F: Staphylococcus aureus MU500 (irradiation), replication", "setting": "[5]", "value": "NR (No replication)"},
      {"measurement": "A: Pseudomonas aeruginosa (no irradiation), replication", "setting": "Pseudomonas aeruginosa", "value": "R (Bacteria can replicate after the treatment)"},
      {"measurement": "B: Pseudomonas aeruginosa (irradiation), replication", "setting": "Pseudomonas aeruginosa", "value": "NR (No replication)"},
      {"measurement": "C: Acinetobacter (no irradiation), replication", "setting": "Acinetobacter [6]", "value": "R (Bacteria can replicate after the treatment)"},
      {"measurement": "D Acinetobacter (irradiation), replication", "setting": "Acinetobacter [6]", "value": "NR (No replication)"}
    ]}
  ]
}
